Measured values published in patent US20210230313A1, “SULFUR-CONTAINING GLYCANS AND POLYSACCHARIDES AND METHODS OF CHEMOENZYMATIC SYNTHESIS THEREOF” (priority 2018, published 2021).

How the values were obtained:
[1] = tested on: PmHS-G; assay: Radiochemical incorporation assay, co-polymerization with UDP-[3H]GlcA, paper chromatography; type: biochemical, Pasteurella multocida; details: GAG synthase PmHS-G 1 mg/ml; test UDP-sugar 0.5 mM; UDP-[3H]GlcA 0.08 mM; 30° C., 5.5 hours; * = significant thio-sugar incorporation into polymer
Procedure: (§1) For polymerization tests, for example, the various oligosaccharide acceptors were incubated with two types of UDP-sugars at 2 mM as noted under the same conditions as the single sugar extensions above. Radioactive UDP-sugars (e.g., UDP-[^3H]GlcA) were used to monitor co-polymerization reactions with the thiosugar-donors separated by various modes of chromatography. The general reaction catalyzed by a GAG synthase in these tests is:
(§2) n UDP-4S-HexNAc+n UDP-[^3H]GlcA+acceptor-->2n UDP+[4S-HexNAc+UDP-[^3H]GlcA]n-acceptor
(§3) where HexNAc is GlcNAc, GalNAc, or another sugar or sugar derivative. Reactions used radioactive UDP-GlcA (0.08 mM final; 0.1 microCi ^3H) and the authentic UDP-sugars (a positive control) or their thio-analogs (0.5 mM final) with a GAG synthase (1 mg/ml) in neutral pH buffer (50 mM Hepes, pH 7.2) with divalent cation (1 mM Mn^2+) at 30° C. for 5.5 hours (note: the HA [PmHAS] and chondroitin [PmCS] synthase reactions also employed the stabilizer 1M ethylene glycol). The reactions were quenched (2% SDS detergent), and analyzed by paper chromatography. The small radioactive UDP-sugar precursors are polymerized by the synthase, resulting in larger products (stay at the origin of the paper; any unused precursor migrates down the paper); such data is shown in Table 3.
(§4) Chimeric enzymes that included differing portions of both PmHS1 (GenBank Accession #AAL84702) and PmHS2 (GenBank Accession #AAQ55109) were created and tested for their ability to synthesize polymers from the sulfur-containing UDP-4-S-GlcNAc. As shown below in Table 2, the corresponding numbers describe the original residue numbers of the source parental synthase sequence as noted.
(§5) Overall, the Chimeric B construct (PmHS-B) appears to be the best catalyst tested thus far for incorporating 4-S-GlcNAc into a heparosan-like S-linked polymer.

[2] = tested on: PmHS-D; assay: as above; type: biochemical, Pasteurella multocida; details: GAG synthase PmHS-D 1 mg/ml; test UDP-sugar 0.5 mM; UDP-[3H]GlcA 0.08 mM; 30° C., 5.5 hours
Procedure: as §1, §2, §3, §4, §5

[3] = tested on: PmHS-J; assay: as above; type: biochemical, Pasteurella multocida; details: GAG synthase PmHS-J 1 mg/ml; test UDP-sugar 0.5 mM; UDP-[3H]GlcA 0.08 mM; 30° C., 5.5 hours; * = significant thio-sugar incorporation into polymer
Procedure: as §1, §2, §3, §4, §5

[4] = tested on: PmHS-A; assay: as above; type: biochemical, Pasteurella multocida; details: GAG synthase PmHS-A 1 mg/ml; test UDP-sugar 0.5 mM; UDP-[3H]GlcA 0.08 mM; 30° C., 5.5 hours
Procedure: as §1, §2, §3, §4, §5

[5] = tested on: PmHS-B; assay: as above; type: biochemical, Pasteurella multocida; details: GAG synthase PmHS-B 1 mg/ml; test UDP-sugar 0.5 mM; UDP-[3H]GlcA 0.08 mM; 30° C., 5.5 hours; * = significant thio-sugar incorporation into polymer
Procedure: as §1, §2, §3, §4, §5

[6] = tested on: PmHS-I; assay: as above; type: biochemical, Pasteurella multocida; details: GAG synthase PmHS-I 1 mg/ml; test UDP-sugar 0.5 mM; UDP-[3H]GlcA 0.08 mM; 30° C., 5.5 hours
Procedure: as §1, §2, §3, §4, §5

[7] = biological target: T1, bacterial heparin lyase III (Pedobacter heparinus, UniProt Q59289); assay: Heparin lyase III challenge of HEP polymers, PAGE analysis; type: biochemical; details: 50 mM ammonium acetate, pH 7.0, 20 h at 30° C., loss of signal on PAGE (FIG. 8)
T1 sequence (Q59289 25-659): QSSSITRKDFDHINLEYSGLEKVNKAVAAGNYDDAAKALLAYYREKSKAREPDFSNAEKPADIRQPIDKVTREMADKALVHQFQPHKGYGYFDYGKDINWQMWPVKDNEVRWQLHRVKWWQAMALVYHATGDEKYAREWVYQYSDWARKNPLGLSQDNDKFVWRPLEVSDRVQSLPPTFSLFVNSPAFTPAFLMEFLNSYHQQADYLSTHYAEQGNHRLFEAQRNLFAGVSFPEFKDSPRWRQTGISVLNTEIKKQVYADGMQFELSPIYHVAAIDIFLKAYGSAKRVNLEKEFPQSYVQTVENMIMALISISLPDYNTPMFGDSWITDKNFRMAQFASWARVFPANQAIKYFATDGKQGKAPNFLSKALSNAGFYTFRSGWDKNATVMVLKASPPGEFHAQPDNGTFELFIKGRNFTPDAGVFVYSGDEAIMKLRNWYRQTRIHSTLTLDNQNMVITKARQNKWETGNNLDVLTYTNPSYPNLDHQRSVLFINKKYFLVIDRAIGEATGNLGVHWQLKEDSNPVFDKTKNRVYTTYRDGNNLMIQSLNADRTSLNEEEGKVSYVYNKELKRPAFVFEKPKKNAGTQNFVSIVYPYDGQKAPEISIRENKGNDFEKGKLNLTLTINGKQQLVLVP
Procedure: Polymerization reactions and PAGE analysis. HEP trisaccharide (30 ng/ul) was incubated with 10 mM […] and either 10 mM 4-thio- or authentic UDP-GlcNAc, with PmHS-G (0.5 mg/ml), 1 mM MnCl2, and 50 mM Hepes, pH 7.2, for 20 h at 30° C. The reactions were then diluted in water and split into two aliquots, (i) a untreated control (−) and (ii) a heparin lyase III treated in 50 mM ammonium acetate, pH 7.0, for 20 h at 30° C. (+). The samples were then analyzed on a 6% 1×TBE PAGE (250 V, 15 min) and stained with 0.05% Alcian Blue followed by silver staining (BioRad Silver Stain kit).
Polymerization reactions producing longer HEP chains with either native (4-OH) or analog (4-SH) donors were analyzed for size on PAGE gels and stained. The gel depicts the polysaccharides made with both natural UDP-donors (native HEP) or by using the thio-GlcNAc analog and UDP-GlcA to form Hemi-A HEP.
Both polymers were challenged with bacterial heparin lyase III (+lanes). […] This finding is predicted as the enzyme digests the C—O—C glycosidic link that still exists in both types of HEP species.

CC(=O)N[C@H]1[C@@H](OP(=O)(O)OP(=O)(O)OC[C@H]2O[C@@H](n3ccc(=O)[nH]c3=O)[C@H](O)[C@@H]2O)O[C@H](CO)[C@@H](O)[C@@H]1O [UDP-GlcNAc, UDP-N-acetylglucosamine]
3H radioactivity at the origin (dpm) [1]: 8,900 dpm
3H radioactivity at the origin (dpm) [2]: 4,140 dpm
3H radioactivity at the origin (dpm) [3]: 12,200 dpm
3H radioactivity at the origin (dpm) [4]: 9,230 dpm
3H radioactivity at the origin (dpm) [5]: 9,020 dpm
3H radioactivity at the origin (dpm) [6]: 3,900 dpm

(-4-GlcA-1-beta-S-4-GlcNAc-1-alpha-O)n [Hemi-A HEP]
Susceptibility to digestion by bacterial heparin lyase [7]: sensitive to digestion

CC(=O)N[C@H]1[C@@H](OP(=O)(O)OP(=O)(O)OC[C@H]2O[C@@H](n3ccc(=O)[nH]c3=O)[C@H](O)[C@@H]2O)O[C@H](CO)[C@@H](S)[C@@H]1O [UDP-4S-GlcNAc, UDP-4-SH-GlcNAc]
3H radioactivity at the origin (dpm) [1]: 510 * dpm
3H radioactivity at the origin (dpm) [2]: 42 dpm
3H radioactivity at the origin (dpm) [3]: 480 * dpm
3H radioactivity at the origin (dpm) [5]: 800 * dpm
3H radioactivity at the origin (dpm) [6]: 42 dpm
